Results from the CheMixHub ionic liquid set.
Where “and” joins values, the source holds several entries; their conditions need not be identical. Equal values may be shown once.

Test: xn = mol fraction of the nth substance listed

C=C[n+]1ccn(CCCC)c1.N[C@@H](Cc1c[nH]cn1)C(=O)[O-] + O
101.3 kPa
Settings	electrical conductivity [S/m]	viscosity [mPa·s]
303.15 K, x1 = 0.3	3.56	8.1
303.15 K, x1 = 0.9	0.59	1179
323.15 K, x1 = 1	0.21	1418
333.15 K, x1 = 0.3	–	4.19
343.15 K, x1 = 0.7	–	29.04
353.15 K, x1 = 0.5	–	12.68

CCCC[N+]1(C)CCCC1.N#C[N-]C#N + O
100 kPa
Settings	viscosity [mPa·s]
298.15 K, x2 = 0.8348	8
318.15 K, x2 = 0.5802	9
323.15 K, x2 = 0.6452	7
333.15 K, x2 = 0.5238	7
338.15 K, x2 = 0.371	7.8
338.15 K, x2 = 0.3756	7.8

CC(=O)[O-].CCCC[n+]1ccn(C)c1 + CCCC[n+]1ccn(C)c1.O=S(=O)([N-]S(=O)(=O)C(F)(F)F)C(F)(F)F
101 kPa
Settings	electrical conductivity [S/m]	viscosity
283.15 K, x2 = 0	0.0145	1815 mPa·s
283.15 K, x2 = 0.1057	0.0213	1212 mPa·s
283.15 K, x2 = 0.3662	0.0403	565 mPa·s
298.15 K, x2 = 0.8097	0.28	73 mPa·s
303.15 K, x1 = 0.5001	–	100 mPa·s
303.15 K, x1 = 0.7497	–	161.5 mPa·s
313.15 K, x2 = 0	0.138	154 mPa·s
313.15 K, x2 = 0.1057	0.168	128 mPa·s
313.15 K, x2 = 0.3662	0.236	82 mPa·s
313.15 K, x2 = 0.6541	0.387	49.4 mPa·s
313.15 K, x2 = 0.8097	0.504	38.2 mPa·s
314.3 K, x2 = 0	–	126 mPa·s and 138 mPa·s
314.3 K, x2 = 0.7282	0.474	39.2 mPa·s
323.15 K, x1 = 0.7497	–	56 mPa·s
333.15 K, x2 = 0.1057	0.416	47.4 mPa·s
